Test results as given in patent US8680065B2, “Oligonucleotides of human endogenous retrovirus 9 (ERV-9) long terminal repeat (LTR) and methods of use” (The United States of America, as represented by the …, priority 2008, dated 2014).

Key:
Format in all cases: cell-based, human
[1] = test system: LNcaP cells (a prostate cancer cell line); assay: Cancer cell proliferation, oligonucleotide in LIPOFECTAMINE, 48 hours, direct cell counting; conditions: oligonucleotide 10, 20 or 30 μg/ml
K562 cells = assay: Cancer cell proliferation, oligonucleotide in combination with VP16, 48 hours; conditions: oligonucleotide 15 μg/ml with VP16 30 ng/ml and 50 ng/ml, P<0.05
Protocol: (§1) FIG. 9 is a graph showing proliferation of K562 cells treated with ERV-9 U3 sense or antisense oligonucleotide (SEQ ID NOs: 1 and 2, respectively), in combination with VP16. Cells (4×10^4) were treated with oligonucleotide (15 μg/ml) alone or in combination with the concentrations of VP16 shown for 48 hours.
(§2) To test the effect of treating cancer cells with the combination of ERV-9 U3 oligonucleotide and VP16, six different cancer cell lines were analyzed: HT1080, (FIG. 7); MDA-231 (FIG. 8); K562 (FIG. 9); LNcaP (FIG. 10); HepG2 (FIG. 11); and MCF-7 (FIG. 12). Cells (4×10^4) were treated with 15 μg/ml ERV-9 U3 sense (SEQ ID NO: 1) or antisense (SEQ ID NO: 2) oligonucleotide alone or in combination with VP16 at a concentration of 30 ng/ml or 50 ng/ml. After 48 hours, cell proliferation was assessed by direct cell counting. Cell proliferation levels were expressed relative to GFP oligonucleotide control in the absence of VP16.

[2] = test system: HT1080 cells (a fibrosarcoma cell line); assay: Cancer cell proliferation, oligonucleotide in LIPOFECTAMINE, 48 hours, direct cell counting; conditions: P<0.05
Protocol: FIG. 1 is a graph showing the effect of sense and antisense ERV-9 U3 oligonucleotides (SEQ ID NOs: 1 and 2, respectively) on proliferation of HT1080 cells (a fibrosarcoma cell line). Cells (4×10^4) were treated with ERV-9 U3 sense or antisense oligonucleotide formulated in LIPOFECTAMINE™ at the concentrations shown for 48 hours. Green fluorescent protein (GFP) sense oligonucleotide (SEQ ID NO: 3) was used as a control to measure the non-specific cytotoxicity of phosphorothioate-based oligonucleotides. Antisense oligonucleotides specific for Bcl-2 (G3139; SEQ ID NO: 4), telomerase (GRN163; SEQ ID NO: 5) and MDM2 (SEQ ID NO: 6) were also evaluated. Cell proliferation levels were expressed relative to cells transfected with 10 μg/ml GFP oligonucleotide.
(§3) To test the effect of the sense and antisense ERV-9 U3 oligonucleotides on proliferation of cancer cells, six different cancer cell lines were selected for transfection studies: HT1080, fibrosarcoma cells (FIG. 1); MDA-231, breast cancer cells (FIG. 2); K562, myelogenous leukemia cells (FIG. 3); LNcaP, prostate cancer cells (FIG. 4); HepG2, hepatocellular carcinoma cells (FIG. 5); and MCF-7, breast cancer cells (FIG. 6). Cells (4×10^4) were treated with ERV-9 U3 sense or antisense oligonucleotide formulated in LIPOFECTAMINE™ at an oligonucleotide concentration of 10, 20 or 30 μg/ml for 48 hours. Green fluorescent protein (GFP) sense oligonucleotide ([…]; SEQ ID NO: 3) was used as a control to measure the non-specific cytotoxicity of phosphorothioate-based oligonucleotides. Antisense oligonucleotides specific for Bcl-2 (G3139; TCTCCCAGCGTGCGCCAT; SEQ ID NO: 4), telomerase (GRN163; TAGGGTTAGACAA; SEQ ID NO: 5), and MDM2 ([…]; SEQ ID NO: 6) were also evaluated. […] After 48 hours of oligonucleotide treatment, cell proliferation was assessed by direct cell counting. Cell proliferation levels were expressed relative to cells transfected with 10 μg/ml GFP control oligonucleotide.

MCF-7 cells = assay: Cancer cell proliferation, oligonucleotide in combination with VP16, 48 hours; conditions: oligonucleotide 15 μg/ml with VP16 30 ng/ml and 50 ng/ml, P<0.05
Protocol: as §1, with “FIG. 12” for “FIG. 9”, “of MCF-7” for “of K562”
as §2

[3] = test system: HT1080, MDA-231, K562, LNcaP, HepG2 and MCF-7 cancer cell lines; assay: Cancer cell proliferation, Example 2, summary over six cancer cell lines, alone or with VP16; conditions: for proliferation relative to GFP control oligonucleotide: each of six cancer cell lines, oligonucleotide 15 μg/ml, 48 hours; for proliferation compared with Bcl-2, telomerase and MDM2-specific antisense oligonucleotides: six cancer cell lines, alone or with VP16, in most instances
Protocol: as §2

[4] = test system: MCF-7 cells (a breast cancer cell line); assay: Cancer cell proliferation, oligonucleotide in LIPOFECTAMINE, 48 hours, direct cell counting; conditions: P<0.05; for cell proliferation compared with G3139, GRN163 and MDM2 antisense oligonucleotides: oligonucleotide 30 μg/ml; for cell proliferation relative to GFP oligonucleotide: oligonucleotide 10, 20 or 30 μg/ml
Protocol: FIG. 6 is a graph showing the effect of sense and antisense ERV-9 U3 oligonucleotides (SEQ ID NOs: 1 and 2, respectively) on proliferation of MCF-7 cells (a breast cancer cell line). Cells (4×10^4) were treated with ERV-9 U3 sense or antisense oligonucleotide formulated in LIPOFECTAMINE™ at the concentrations shown for 48 hours.
as §3

HT1080 cells = assay: Cancer cell proliferation, oligonucleotide in combination with VP16, 48 hours; conditions: oligonucleotide 15 μg/ml with VP16 30 ng/ml and 50 ng/ml, P<0.05
Protocol: as §1, with “FIG. 7” for “FIG. 9”, “of HT1080” for “of K562”, “with VP16 (also known as etoposide).” for “with VP16.”, “hours. Cell proliferation levels were expressed relative to the percentage of GFP oligonucleotide control in the absence of VP16.” for “hours.”
as §2

MDA-231 cells = assay: as above; conditions: oligonucleotide 15 μg/ml with VP16 30 ng/ml and 50 ng/ml, P<0.05
[5] = oligonucleotide 20 μg/ml and 30 μg/ml

Substance	cell proliferation relative to GFP oligonucleotide [1]	cell proliferation relative to GFP oligonucleotide control (K562 cells)	cell proliferation relative to GFP oligonucleotide ([2]; oligonucleotide 10 μg/ml)	cell proliferation relative to GFP oligonucleotide [2, 5]	cell proliferation relative to GFP oligonucleotide control (MCF-7 cells)	proliferation relative to GFP control oligonucleotide [3]	proliferation compared with Bcl-2, telomerase and MDM2-specific antisense oligonucleotides [3]	cell proliferation compared with G3139, GRN163 and MDM2 antisense oligonucleotides [4]	cell proliferation relative to GFP oligonucleotide [4]	cell proliferation relative to GFP oligonucleotide control (HT1080 cells)	cell proliferation relative to GFP oligonucleotide control (MDA-231 cells)
U3S: ERV-9 LTR U3 sense oligonucleotide CTCAAGGTTTGTAAACACACCAATCAG, phosphorothioate internucleoside linkages at each position (all phosphorothioate, sugars by position and methylation of C not given here) [Oligo U3S]	inhibited cell proliferation better than GFP control oligonucleotide at all three oligonucleotide concentrations	inhibited cell proliferation better than GFP control and G3139, GRN163 and MDM2 antisense oligonucleotides	inhibited cell proliferation better than GFP oligonucleotide	inhibited cell proliferation better than GFP control and G3139, GRN163 and MDM2 antisense oligonucleotides	inhibited cell proliferation better than GFP control and G3139, GRN163 and MDM2 antisense oligonucleotides	resulted in a significant decrease in proliferation of each cancer cell line tested, relative to GFP control oligonucleotide	inhibited proliferation to a greater extent than the Bcl-2, telomerase and MDM2-specific antisense oligonucleotides, either alone or in combination with VP16	inhibited proliferation better than G3139, GRN163 and MDM2 antisense oligonucleotides	inhibited cell proliferation better than GFP control oligonucleotide at all three concentrations	inhibited cell proliferation better than GFP control and G3139, GRN163 and MDM2 antisense oligonucleotides	inhibited cell proliferation better than GFP oligonucleotide
U3AS: ERV-9 LTR U3 antisense oligonucleotide CTGATTGGTGTGTTTACAAACCTTGAG, phosphorothioate internucleoside linkages at each position (all phosphorothioate, sugars by position and methylation of C not given here) [Oligo U3AS]	inhibited cell proliferation better than GFP control oligonucleotide at all three oligonucleotide concentrations	inhibited cell proliferation better than GFP control and G3139, GRN163 and MDM2 antisense oligonucleotides	inhibited cell proliferation better than GFP oligonucleotide	inhibited cell proliferation better than GFP control and G3139, GRN163 and MDM2 antisense oligonucleotides	inhibited cell proliferation better than GFP control and G3139, GRN163 and MDM2 antisense oligonucleotides	resulted in a significant decrease in proliferation of each cancer cell line tested, relative to GFP control oligonucleotide	inhibited proliferation to a greater extent than the Bcl-2, telomerase and MDM2-specific antisense oligonucleotides, either alone or in combination with VP16	inhibited proliferation better than G3139, GRN163 and MDM2 antisense oligonucleotides	inhibited cell proliferation better than GFP control oligonucleotide at all three concentrations	inhibited cell proliferation better than GFP control and G3139, GRN163 and MDM2 antisense oligonucleotides	inhibited cell proliferation better than GFP control and G3139, GRN163 and MDM2 antisense oligonucleotides
